Results on ten molecules are retold here after patent US20140051918A1, “LAPAROSCOPIC GASTRIC BAND WITH ACTIVE AGENTS” (Allergan, Inc., priority 2009, published 2014).

The assay is described as follows: Patient examples: laparoscopic gastric band releasing an active agent, with weight loss, appetite and blood sugar control reported. In kind it is in vivo, human. To be noted: 322 pounds; for weight lost by the patient: 5'11", within 12 months; for weight lost by the patient / appetite as reported by the patient: gastric band containing the agent, released to a goal plasma concentration over 3-24 months. An excerpt:
A patient, having a body weight of 322 pounds and a height of 5′11″, complains to their physician that they have tried unsuccessfully to lose weight over the past 15 years and is concerned about the effect their excess weight may have on their health. […] A reservoir containing glucagon like peptide 1 (GLP-1), according to any of the embodiments of this application may also be utilized.
A patient, having a body weight of 322 pounds and a height of 5′11″, complains to their physician that they have tried unsuccessfully to lose weight over the past 15 years and is concerned about the effect their excess weight may have on their health. […] A reservoir containing oxyntomodulin (OXM), according to any of the embodiments of this application may also be utilized. An injection, liquid, pill, spray, inhalant, patch, or oral substance such as a gum containing oxyntomodulin (OXM) may also be used.
A patient, having a body weight of 322 pounds and a height of 5′11″, complains to their physician that they have tried unsuccessfully to lose weight over the past 15 years and is concerned about the effect their excess weight may have on their health.
A patient, having a body weight of 322 pounds and a height of 5′11″, complains to their physician that they have tried unsuccessfully to lose weight over the past 15 years and is concerned about the effect their excess weight may have on their health. […] A reservoir containing Pancreatic Peptide (PP), according to any of the embodiments of this application may also be utilized. An injection, liquid, pill, spray, inhalant, patch, or oral substance such as a gum containing Pancreatic Peptide (PP) may also be used.
A patient, having a body weight of 322 pounds and a height of 5′11″, complains to their physician that they have tried unsuccessfully to lose weight over the past 15 years and is concerned about the effect their excess weight may have on their health. […] A reservoir containing Insulin, according to any of the embodiments of this application may also be utilized. An injection, liquid, pill, spray, inhalant, patch, or oral substance such as a gum containing Insulin may also be used.
A patient, having a body weight of 322 pounds and a height of 5′11″, complains to their physician that they have tried unsuccessfully to lose weight over the past 15 years and is concerned about the effect their excess weight may have on their health. […] A reservoir containing Leptin, according to any of the embodiments of this application may also be utilized. An injection, liquid, pill, spray, inhalant, patch, or oral substance such as a gum containing Leptin may also be used. […] In the case of a female patient the goal plasma concentrations would be [10-20 ng/mL]p.
A patient, having a body weight of 322 pounds and a height of 5′11″, complains to their physician that they have tried unsuccessfully to lose weight over the past 15 years and is concerned about the effect their excess weight may have on their health. […] A reservoir containing Amylin, according to any of the embodiments of this application may also be utilized. An injection, liquid, pill, spray, inhalant, patch, or oral substance such as a gum containing Amylin may also be used.
A patient, having a body weight of 322 pounds and a height of 5′11″, complains to their physician that they have tried unsuccessfully to lose weight over the past 15 years and is concerned about the effect their excess weight may have on their health. […] A reservoir containing Cholecystokinin (CCK), according to any of the embodiments of this application may also be utilized. An injection, liquid, pill, spray, inhalant, patch, or oral substance such as a gum containing Cholecystokinin (CCK) may also be used.

Ends that are not written are not given here.

Regarding “PYY: satiety inducing peptide hormone [Peptide Y-Y]”, the “weight lost by the patient” value came to 58 pounds and the “appetite as reported by the patient” value is reported as “marked suppression of appetite”.
For Leptin the same measures were 58 pounds and “marked suppression of appetite”.
On the same counts, the results for “Amylin (KCNTATCATQRLANFLVHSSNNFGAILSSTNVGSNTY; not fully specified (C-terminus, bridges); cysteine pairing not given here; UniProt P10997 34-70, looked up) [satiety inducing peptide hormone]” are 58 pounds and “marked suppression of appetite”.
As for oxyntomodulin [OXM], the “weight lost by the patient” value was found to be 58 pounds and the “appetite as reported by the patient” value is “marked suppression of appetite”.
For “Cocaine-Amphetamine Regulated Transcript [CART]” the same measures were 58 pounds and “marked suppression of appetite”.
In the case of Insulin, the “blood sugar control as reported by the patient” value (gastric band containing Insulin, released to plasma concentrations of 5-30 μU/mL over 3-24 months) was “euglycemic effects, or better control by their body of blood sugars”.
Turning to “Pancreatic Peptide (APLEPVYPGDNATPEQMAQYAADLRRYINMLTRPRY; ends and bridges not checked; UniProt P01298 30-65, looked up) [PP, satiety inducing peptide hormone]”, the “weight lost by the patient” value is 58 pounds and the “appetite as reported by the patient” value is “marked suppression of appetite”.
Take “glucagon like peptide 1 (HAEGTFTSDVSSYLEGQAAKEFIAWLVKGR; ends and bridges not checked; UniProt P01275 98-127, looked up) [GLP-1, satiety inducing peptide hormone]”: the “weight lost by the patient” value was 58 pounds and the “appetite as reported by the patient” value is reported as “marked suppression of appetite”.

B1: Cholecystokinin (peptide, UniProt P06307 21-115, looked up)
Cholecystokinin: QPVPPADPAGSGLQRAEEAPRRQLRVSQRTDGESRAHLGALLARYIQQARKAPSGRMSIVKNLQNLDPSHRISDRDYMGWMDFGRRSAEEYEYPS
modifications: Cholecystokinin
notes: hormone that suppresses appetite when administered with or without gastric distension
With B1, the “weight lost by the patient” value was 58 pounds and the “appetite as reported by the patient” value is listed as “marked suppression of appetite”.

B2: Ciliary neuro-trophic factor (protein, UniProt P26441 1-200, looked up)
Ciliary neurotrophic factor: MAFTEHSPLTPHRRDLCSRSIWLARKIRSDLTALTESYVKHQGLNKNINLDSADGMPVASTDQWSELTEAERLQENLQAYRTFHVLLARLLEDQQVHFTPTEGDFHQAIHTLLLQVAAFAYQIEELMILLEYKIPRNEADGMPINVGDGGLFEKKLWGLKVLQELSQWTVRSIHDLRFISSHQTGIPARGSHYIANNKKM
For the molecule B2, the “weight lost by the patient” value came to 58 pounds and the “appetite as reported by the patient” value is reported as “marked suppression of appetite”.
